# Results reported in patent US7872002B2, “Therapeutic pyrazoloquinoline derivatives” (Helicon Therapeutics, Inc., priority 2007, dated 2011).
# Target: GABAA central benzodiazepine receptor
# Experiment: Benzodiazepine Binding Assay ((3H)-flunitrazepam, rat whole brain except cerebellum)
# Settings: read-out: BZ binding assay (IC50); 1 nM (3H)-flunitrazepam, 60 minutes at 25° C., pH 7.4; with or without 30 μM GABA
row,IC50 [nM],Compound
1,1 to 1000,"CC(C)N1CCN(c2cc(N3CCN(C(C)C)CC3)c3[nH]cc4c(=O)n(-c5ccccc5)nc-4c3c2)CC1 [Compound 58b, 6,8-Bis(4-iso-propylpiperazin-1-yl)-2-phenyl-2,5-dihydro-pyrazolo[4,3-c]quinolin-3-one]"
2,1 to 1000,"O=c1c2c[nH]c3c(N4CCOCC4)cc(N4CCOCC4)cc3c-2nn1-c1ccccc1 [Compound 58a, 6,8-Bis(morpholin-4-yl)-2-phenyl-2,5-dihydro-pyrazolo[4,3-c]quinolin-3-one]"
